Results taken from article PMC9184653, “LDL receptor-related protein 1 (LRP1), a novel target for opening the blood-labyrinth barrier (BLB)” (Signal Transduction and Targeted Therapy, 2022).
Where no end group is shown, it is not given here.

Legend:
LRP1 [1] = target: T1, LRP1 (Mus musculus, UniProt Q91ZX7); test: immunofluorescence imaging of cochleae after intravenous injection (distribution, colocalization with LRP1); format: in vivo; settings: i.v. injection
T1 construct: from tissue; host or cells: cochleae of C57BL/6J mice
T1 sequence (Q91ZX7 20-4545): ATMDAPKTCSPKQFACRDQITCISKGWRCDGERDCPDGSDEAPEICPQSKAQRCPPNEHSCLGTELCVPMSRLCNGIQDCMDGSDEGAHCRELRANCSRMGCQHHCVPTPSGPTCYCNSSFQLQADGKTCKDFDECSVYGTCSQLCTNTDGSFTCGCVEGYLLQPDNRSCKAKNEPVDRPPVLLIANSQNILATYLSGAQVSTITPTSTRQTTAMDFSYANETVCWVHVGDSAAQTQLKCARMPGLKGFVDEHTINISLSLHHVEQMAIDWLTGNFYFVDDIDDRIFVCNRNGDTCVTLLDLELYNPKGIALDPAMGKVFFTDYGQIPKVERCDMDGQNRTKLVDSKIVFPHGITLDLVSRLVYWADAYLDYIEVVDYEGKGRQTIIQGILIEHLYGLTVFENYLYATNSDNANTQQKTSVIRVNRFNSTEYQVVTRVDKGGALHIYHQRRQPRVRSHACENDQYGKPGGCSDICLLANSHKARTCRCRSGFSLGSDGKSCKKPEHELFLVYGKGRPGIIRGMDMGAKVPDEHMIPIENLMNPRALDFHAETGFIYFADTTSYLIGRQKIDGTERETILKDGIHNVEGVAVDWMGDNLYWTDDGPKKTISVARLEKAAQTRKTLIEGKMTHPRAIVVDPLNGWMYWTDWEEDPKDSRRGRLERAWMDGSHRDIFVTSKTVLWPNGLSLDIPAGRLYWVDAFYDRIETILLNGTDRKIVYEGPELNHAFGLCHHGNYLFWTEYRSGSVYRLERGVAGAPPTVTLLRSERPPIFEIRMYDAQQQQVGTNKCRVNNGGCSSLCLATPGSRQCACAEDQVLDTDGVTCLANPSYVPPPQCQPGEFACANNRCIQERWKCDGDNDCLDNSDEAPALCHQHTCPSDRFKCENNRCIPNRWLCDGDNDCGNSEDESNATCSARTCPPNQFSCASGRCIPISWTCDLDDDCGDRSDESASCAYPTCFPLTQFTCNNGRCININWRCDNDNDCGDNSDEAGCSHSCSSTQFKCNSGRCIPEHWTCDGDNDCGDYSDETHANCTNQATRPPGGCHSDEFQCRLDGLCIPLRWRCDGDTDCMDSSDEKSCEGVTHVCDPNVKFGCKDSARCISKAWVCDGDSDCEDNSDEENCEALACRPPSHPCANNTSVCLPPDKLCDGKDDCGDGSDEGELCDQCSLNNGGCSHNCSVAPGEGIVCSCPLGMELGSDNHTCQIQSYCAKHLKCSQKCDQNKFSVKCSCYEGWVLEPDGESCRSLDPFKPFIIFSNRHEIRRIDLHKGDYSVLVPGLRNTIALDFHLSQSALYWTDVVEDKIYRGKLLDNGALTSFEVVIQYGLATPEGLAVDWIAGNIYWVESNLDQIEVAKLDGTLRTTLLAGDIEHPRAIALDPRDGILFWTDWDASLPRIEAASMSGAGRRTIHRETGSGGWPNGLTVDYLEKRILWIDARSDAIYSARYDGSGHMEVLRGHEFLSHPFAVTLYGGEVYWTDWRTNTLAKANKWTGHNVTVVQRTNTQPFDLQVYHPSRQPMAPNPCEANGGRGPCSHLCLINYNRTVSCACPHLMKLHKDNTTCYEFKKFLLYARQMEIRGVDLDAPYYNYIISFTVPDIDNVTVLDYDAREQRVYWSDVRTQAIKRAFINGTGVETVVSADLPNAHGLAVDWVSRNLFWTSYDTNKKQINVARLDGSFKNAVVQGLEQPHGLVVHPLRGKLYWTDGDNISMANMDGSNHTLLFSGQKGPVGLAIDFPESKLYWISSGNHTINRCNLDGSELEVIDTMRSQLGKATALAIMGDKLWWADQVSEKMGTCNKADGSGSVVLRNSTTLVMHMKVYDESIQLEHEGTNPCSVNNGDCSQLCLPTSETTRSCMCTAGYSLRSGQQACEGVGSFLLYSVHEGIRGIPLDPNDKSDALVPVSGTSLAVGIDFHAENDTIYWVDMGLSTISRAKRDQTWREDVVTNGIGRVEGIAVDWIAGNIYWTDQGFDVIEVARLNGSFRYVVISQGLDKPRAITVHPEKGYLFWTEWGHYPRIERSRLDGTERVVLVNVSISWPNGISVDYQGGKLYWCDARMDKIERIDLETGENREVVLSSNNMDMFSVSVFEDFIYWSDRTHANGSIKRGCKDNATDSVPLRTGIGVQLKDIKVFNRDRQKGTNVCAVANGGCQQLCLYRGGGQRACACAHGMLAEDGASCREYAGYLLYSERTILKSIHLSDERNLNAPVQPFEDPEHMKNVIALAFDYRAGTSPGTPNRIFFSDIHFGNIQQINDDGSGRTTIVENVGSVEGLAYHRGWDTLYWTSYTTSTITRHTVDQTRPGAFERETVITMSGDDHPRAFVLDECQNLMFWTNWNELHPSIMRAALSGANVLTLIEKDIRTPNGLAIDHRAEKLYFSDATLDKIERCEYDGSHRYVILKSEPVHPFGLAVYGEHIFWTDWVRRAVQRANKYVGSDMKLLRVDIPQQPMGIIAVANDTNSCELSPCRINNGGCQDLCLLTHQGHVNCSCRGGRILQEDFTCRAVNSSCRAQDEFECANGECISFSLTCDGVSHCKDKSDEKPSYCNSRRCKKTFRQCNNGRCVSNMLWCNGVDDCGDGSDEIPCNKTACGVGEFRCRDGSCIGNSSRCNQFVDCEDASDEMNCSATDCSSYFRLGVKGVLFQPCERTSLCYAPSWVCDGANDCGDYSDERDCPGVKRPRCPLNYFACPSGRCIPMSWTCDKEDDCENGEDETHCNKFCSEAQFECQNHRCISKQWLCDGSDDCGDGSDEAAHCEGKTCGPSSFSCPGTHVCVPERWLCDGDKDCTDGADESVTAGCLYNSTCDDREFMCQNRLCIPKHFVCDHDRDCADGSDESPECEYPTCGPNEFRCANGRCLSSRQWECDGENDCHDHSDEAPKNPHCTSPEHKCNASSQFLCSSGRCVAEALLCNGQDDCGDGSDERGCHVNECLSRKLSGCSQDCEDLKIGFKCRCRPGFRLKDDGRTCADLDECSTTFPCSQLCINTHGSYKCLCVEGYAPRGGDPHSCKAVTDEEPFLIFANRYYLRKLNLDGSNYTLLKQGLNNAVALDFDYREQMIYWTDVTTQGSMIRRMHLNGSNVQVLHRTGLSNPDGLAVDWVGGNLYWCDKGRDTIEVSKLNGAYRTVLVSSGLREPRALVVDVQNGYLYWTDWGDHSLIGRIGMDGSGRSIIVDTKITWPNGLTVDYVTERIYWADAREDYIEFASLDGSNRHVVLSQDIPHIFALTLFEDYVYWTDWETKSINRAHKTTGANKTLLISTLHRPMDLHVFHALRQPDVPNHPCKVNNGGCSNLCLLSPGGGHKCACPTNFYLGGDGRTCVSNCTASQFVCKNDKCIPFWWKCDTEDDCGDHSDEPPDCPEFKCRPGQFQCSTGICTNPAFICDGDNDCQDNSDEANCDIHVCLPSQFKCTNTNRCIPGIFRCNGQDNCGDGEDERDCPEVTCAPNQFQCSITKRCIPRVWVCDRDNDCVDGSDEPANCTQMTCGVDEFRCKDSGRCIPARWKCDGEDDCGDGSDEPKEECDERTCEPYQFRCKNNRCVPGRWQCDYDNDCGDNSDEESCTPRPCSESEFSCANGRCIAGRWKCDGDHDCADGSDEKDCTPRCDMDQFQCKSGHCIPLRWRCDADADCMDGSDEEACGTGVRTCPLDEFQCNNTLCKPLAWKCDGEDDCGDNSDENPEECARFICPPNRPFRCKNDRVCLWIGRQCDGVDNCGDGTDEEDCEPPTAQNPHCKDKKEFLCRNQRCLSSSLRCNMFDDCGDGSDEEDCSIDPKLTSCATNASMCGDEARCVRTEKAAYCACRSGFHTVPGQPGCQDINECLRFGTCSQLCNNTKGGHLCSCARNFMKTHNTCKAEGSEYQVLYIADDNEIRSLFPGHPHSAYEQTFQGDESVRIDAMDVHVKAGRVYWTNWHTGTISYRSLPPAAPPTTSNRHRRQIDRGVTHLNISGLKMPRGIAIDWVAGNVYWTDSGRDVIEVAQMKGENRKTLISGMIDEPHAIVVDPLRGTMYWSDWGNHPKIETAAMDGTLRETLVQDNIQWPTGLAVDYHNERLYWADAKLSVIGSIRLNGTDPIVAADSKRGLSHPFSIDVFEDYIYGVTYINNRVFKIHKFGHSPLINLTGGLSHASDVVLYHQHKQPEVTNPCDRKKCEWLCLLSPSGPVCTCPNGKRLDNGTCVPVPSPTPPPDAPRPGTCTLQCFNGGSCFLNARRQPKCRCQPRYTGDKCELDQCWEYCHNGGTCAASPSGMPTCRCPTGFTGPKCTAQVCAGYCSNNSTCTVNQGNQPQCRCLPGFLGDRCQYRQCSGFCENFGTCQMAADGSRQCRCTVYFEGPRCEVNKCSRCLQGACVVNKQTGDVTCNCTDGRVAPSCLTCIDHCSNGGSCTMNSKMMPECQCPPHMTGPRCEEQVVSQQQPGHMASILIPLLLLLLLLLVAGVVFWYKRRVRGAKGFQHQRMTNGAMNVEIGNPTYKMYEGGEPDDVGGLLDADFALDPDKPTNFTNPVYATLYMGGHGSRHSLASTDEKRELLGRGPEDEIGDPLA
Procedure: (§1) To classify the roles of LRP1 in the transportation of IETP2 to the inner ear, the binding affinity of IETP2 to LRP1 was first determined using biolayer interferometry (BLI, Fig. 2d). […] SV was further imaged from another view. […] The Manders’ colocalization coefficients (MCCs) of LRP1 and IETP2 in IHCs, ECs, SP cells, and SGNs were 0.71515, 0.64284, 0.56482, and 0.70552, respectively.
Four-week-old C57BL/6J mice of either sex were harvested 50 min and 2 h post-injection. Cochleae were fixed in 4% paraformaldehyde at 4 °C for 8 h and decalcified in 4% EDTA for 4 days at room temperature (RT). Parts of the cochleae were dissected into pieces containing the basilar membrane (BM), organ of Corti (OC) and stria vascularis (SV) from the apex to the hook region and then used for whole-mount immunofluorescence. Other parts of the cochleae were dehydrated using a graded sucrose solution (15% and 30%; 3 h for each grade) at RT, embedded in optimum cutting temperature (OCT) compound for 5 h at RT, frozen for 1 h at −20 °C and sectioned with a freezing microtome (Leica CM1900) at an 8 μm thickness.
For whole-mount and cross-section immunofluorescence, tissues were incubated with 0.1% Triton X-100 and blocked with 10% donkey serum for 2 h at RT before the application of the primary antibodies. […]

LRP1 [2] = target: LRP1 (Homo sapiens, UniProt Q07954); test: biolayer interferometry (BLI) binding of IETP2 to LRP1; settings: kinetic analysis, read-out: dissociation constant (KD) of IETP2 binding to LRP1
From the text: Gly-Cy5.5 served as a negative control. d Kinetic analysis of IETP2 binding to LRP1. […] Scale bars: e, j, o 100 µm, y, z 50 µm, others 10 µm.)
as §1

mouse cochleae = test: in vivo and ex vivo fluorescence imaging of cochlear uptake; settings: IETP2-Cy5.5, i.v., BALB/c nude mice
From the text: To validate whether the selected IETPs could cross the BLB and to evaluate the inner ear-targeting efficacy, IETPs were covalently conjugated with the fluorescent dye Cy5.5 and intravenously injected into mice. In vivo and ex vivo fluorescence imaging of cochleae was used for evaluation. […] The IETP2 signal was visualized with in vivo fluorescence imaging (Fig. 2c). Compared to that in the brain and muscle, the signal of IETP2 detected in the cochleae was much stronger (Fig. 2c). […] Therefore, IETP2 was selected for the subsequent experiments.
BALB/c nude mice (4 weeks old, either sex) were divided into three groups (5 mice for each group). […] After the indicated times, the animals were anesthetized with isoflurane and subjected to live animal imaging (IVIS Lumina III, Caliper LifeSciences, MA, USA). The excitation/emission filter was set at 625/700 nm, and images were taken with an interval of 20 min post-injection. To validate the uptake efficiency of different IETPs, mice were sacrificed 1 h post-injection, and the cochleae were collected and imaged. […] The time-dependent uptake of IETP2 in mouse cochleae was assessed at a series of time points (1, 1.5, 2, and 2.5 h) with 3 mice at each time point for each group. Collected images were analyzed using Living Image software (IVIS Imaging System, 4.5.5).

C57BL/6J mice = test: ototoxicity evaluation by auditory brainstem response (ABR) testing; format: in vivo, mouse; settings: 6 mice, 12 ears, 7- and 14-days post-administration
Procedure: Auditory brainstem response (ABR) testing was conducted in a standard soundproof chamber for animal use. Mice were anesthetized with a mixture of isoflurane (Keyue Life Science Co., Ltd.) and air via a respirator for animal use (Medical Supplies and Services Int., Ltd.) and an aquarium air pump (HAILEA, A00–5505). The final concentration of isoflurane was 2% at a flow rate of 1.5. Circulating heating pads were placed under the mice to maintain body temperature at 37 °C. ABRs were recorded with a Tucker Davis Technologies (TDT) RZ6 instrument, and the sound was delivered by a calibrated loudspeaker (TDT, MF1 2356).
For ABR testing, needle electrodes were inserted beneath the skin. The recording electrode was inserted at the vertex, the reference electrode was inserted at the pinna, and the ground electrode was inserted near the tail. The ABR stimuli were frequency-specific tone pips at frequencies from 1 kHz to 32 kHz with a duration of 5 ms (0.5 ms rise-fall delivered at 21.1/sec), and each response was amplified 10,000-fold with a filter passband of 100 Hz to 3 kHz and averaged over 1024 times. The signal started at 90 dB sound pressure level (SPL) with a step of 10 dB and decreased to 10 dB SPL at frequencies of 4, 8, 16, 24, and 32 kHz for mice. The threshold was defined as the lowest dB SPL with an identifiable and repeatable wave I for mice. […]

pig cochleae = test: pig cochlear immunofluorescence imaging after intravenous injection; format: in vivo; settings: IETP2 labeled with 5-TAMRA or Cy5.5, earlobe vein injection, 2 h post-injection
Procedure: To further test the generality of IETP2 in large mammals, IETP2 labeled with 5-TAMRA or Cy5.5 was injected into pigs via earlobe veins. Two hours post-injection, the pigs were sacrificed (Supplementary Figs. S5 and S6, representative images of three independent experiments).
The zoomed-in OC images in the white dotted rectangle in f.
Images from the IETP2-5-TAMRA injection group. […] Images from the 5-TAMRA injection group. […] The setting parameters for the microscope (including the excitation intensity and emission gain) remained consistent throughout the experiments. c. […] Images of pig cochleae injected with free Cy5.5 (2 h after injection). (DAPI: blue; LRP1: green; phalloidin: magenta. Scale bars for the overview of porcine cochlear mid turn are 200 µm; others are 10 µm.)

Compound	distribution in cochleae, free dye (LRP1 [1])	Kd (LRP1 [2]) [nM]	signal in the cochleae compared to brain and muscle (mouse cochleae)	ototoxicity (ABR thresholds) (C57BL/6J mice)	transport into the inner ear of pigs (pig cochleae)
CCN1\C(=C/C=C/C=C/C2=[N+](CCCCCC(=O)O)c3ccc4c(S(=O)(=O)O)cc(S(=O)(=O)O)cc4c3C2(C)C)C(C)(C)c2c1ccc1c(S(=O)(=O)[O-])cc(S(=O)(=O)O)cc21 [Cy5.5]	limited distribution inside blood vessels in the SV and SGN regions				
TFYGGRPKRNNFLRGIRSRGD [IETP2]		738	much stronger	no obvious ototoxicity	could be transported into the inner ears
